Measurements taken from ChEMBL document CHEMBL3507680, “University of Dundee, Gates Library screen for HepG2 cell viability”.

Assay: Human HepG2 cell viability assay in 384 well format
Type: toxicity, cell-based
Parameters: dose 125 nL, time 70.5 hour; cytotoxicity at 70.5 h: concentration not given beside the values
Details: HepG2 cells, read-out: Inhibition

**Q.** For `COc1ccccc1C(=O)NCc1n[nH]c(C)n1`, which cytotoxicity at 70.5 h is on record?
**A.** The cytotoxicity at 70.5 h was 0.0224%.

**Q.** For `Cc1nn(C)c(C)c1C1CCCN1Cc1nnc(C2CC2)n1C` (configuration not stated), which cytotoxicity at 70.5 h is on record?
**A.** The cytotoxicity at 70.5 h was -1.77%.

**Q.** Which cytotoxicity at 70.5 h does the source give for `Cc1[nH]nc2ncc(C(=O)N3CCN(CC(C)(C)O)CC3)cc12` here?
**A.** The cytotoxicity at 70.5 h was -0.78%.

**Q.** For `O=C(CC1OCCc2ccccc21)NCCn1cccc1` (configuration not stated), which cytotoxicity at 70.5 h is on record?
**A.** The cytotoxicity at 70.5 h was -4.75%.

**Q.** For `N#CC(NC(=O)c1cccc2c1OCCO2)c1ccc(F)cc1F` (configuration not stated), which cytotoxicity at 70.5 h is on record?
**A.** Its cytotoxicity at 70.5 h is -4.12%.

**Q.** Which cytotoxicity at 70.5 h does the source give for `O=C(CN1CCCS1(=O)=O)Nc1ccc(OC2CCCC2)c(Cl)c1` here?
**A.** Its cytotoxicity at 70.5 h is -0.366%.

**Q.** For `CSc1c[nH]nc1NS(=O)(=O)c1ccc(C)c(C)c1`, which cytotoxicity at 70.5 h is on record?
**A.** The cytotoxicity at 70.5 h was -2.13%.

**Q.** With `Cc1ccc(-c2ncc(CN3CCN(S(N)(=O)=O)CC3)s2)o1` as the compound, how does the cytotoxicity at 70.5 h read?
**A.** Its cytotoxicity at 70.5 h is 0.625%.

**Q.** For `COc1c(C2CCCN2Cc2nccn2C)c(C)nn1C` (configuration not stated), which cytotoxicity at 70.5 h is on record?
**A.** The cytotoxicity at 70.5 h was 2.44%.

**Q.** For `CCN(C)S(=O)(=O)N(Cc1cscn1)c1ccccc1`, which cytotoxicity at 70.5 h is on record?
**A.** Its cytotoxicity at 70.5 h is -7.14%.

**Q.** For `COc1c(C2CCCN2Cc2nnc(C3CC3)n2C)c(C)nn1C` (configuration not stated), which cytotoxicity at 70.5 h is on record?
**A.** The cytotoxicity at 70.5 h was -5.73%.

**Q.** Which cytotoxicity at 70.5 h does the source give for `O=c1ccncn1Cc1csc(C2CC2)n1` here?
**A.** The cytotoxicity at 70.5 h was -3.74%.

**Q.** For `Cc1cc(C)n2c(CNCc3ccc(OC(F)F)cc3)cnc2n1`, which cytotoxicity at 70.5 h is on record?
**A.** Its cytotoxicity at 70.5 h is -9.15%.

**Q.** Which cytotoxicity at 70.5 h does the source give for `CC(C)c1nnc(CN2CC(n3cccn3)C2)o1` here?
**A.** Its cytotoxicity at 70.5 h is -6.56%.

**Q.** With `CNC(=O)C1Cc2ccccc2CN1C(=O)CC(C)C` (configuration not stated) as the compound, how does the cytotoxicity at 70.5 h read?
**A.** Its cytotoxicity at 70.5 h is -10.1%.

**Q.** With `CCN(CC)C(CNC(=O)c1ccc(-n2cncn2)cc1)c1ccsc1` (configuration not stated) as the compound, how does the cytotoxicity at 70.5 h read?
**A.** Its cytotoxicity at 70.5 h is -3.69%.

**Q.** With `CN(C)C(CNC(=O)c1ccnc(-n2cncn2)c1)c1ccccc1` (configuration not stated) as the compound, how does the cytotoxicity at 70.5 h read?
**A.** Its cytotoxicity at 70.5 h is -9.4%.

**Q.** For `O=C(NCC1CCS(=O)(=O)C1)N(Cc1ccncc1)C1CC1` (configuration not stated), which cytotoxicity at 70.5 h is on record?
**A.** Its cytotoxicity at 70.5 h is -6.32%.

**Q.** Which cytotoxicity at 70.5 h does the source give for `COc1ccccc1C(C)(C)NC(=O)c1ccc(F)c(NC(C)=O)c1` here?
**A.** Its cytotoxicity at 70.5 h is -7.74%.

**Q.** Which cytotoxicity at 70.5 h does the source give for `Cc1nnc(N2CCc3cncnc3C2)c(C#N)c1C` here?
**A.** Its cytotoxicity at 70.5 h is -4.76%.

**Q.** With `COc1ccccc1C(C)(C)NC(=O)Nc1ccc(F)c(C(N)=O)c1` as the compound, how does the cytotoxicity at 70.5 h read?
**A.** Its cytotoxicity at 70.5 h is -4.97%.

**Q.** Which cytotoxicity at 70.5 h does the source give for `NS(=O)(=O)c1ccc(NCc2ccco2)c2ncccc12` here?
**A.** The cytotoxicity at 70.5 h was 8.34%.

**Q.** With `CCc1cc(=O)[nH]c(-c2ccc(NC(C)CN3CCOCC3)nc2)n1` (configuration not stated) as the compound, how does the cytotoxicity at 70.5 h read?
**A.** Its cytotoxicity at 70.5 h is -0.904%.

**Q.** For `CCC(c1ccc(F)cc1)S(=O)(=O)CCO` (configuration not stated), which cytotoxicity at 70.5 h is on record?
**A.** The cytotoxicity at 70.5 h was 15.3%.

**Q.** With `Cn1cc(C2CN(C(=O)Cc3coc(-c4ccccc4)n3)CCO2)cn1` (configuration not stated) as the compound, how does the cytotoxicity at 70.5 h read?
**A.** The cytotoxicity at 70.5 h was 4.27%.

**Q.** For `CC(C)CCC(=O)NCC(=O)N1CCCCCC1c1ccco1` (configuration not stated), which cytotoxicity at 70.5 h is on record?
**A.** Its cytotoxicity at 70.5 h is -5.74%.

**Q.** With `CCOCCCC(=O)N1CCN(c2cccc(OC)c2)C(C)C1` (configuration not stated) as the compound, how does the cytotoxicity at 70.5 h read?
**A.** Its cytotoxicity at 70.5 h is 12.3%.

**Q.** For `Cc1cc(I)cnc1NC(=O)C(C)(C)C`, which cytotoxicity at 70.5 h is on record?
**A.** Its cytotoxicity at 70.5 h is 5.65%.

**Q.** Which cytotoxicity at 70.5 h does the source give for `CCC(CC)N(Cc1cc(=O)n(C)c(=O)n1C)C1CC1` here?
**A.** Its cytotoxicity at 70.5 h is 5.26%.

**Q.** Which cytotoxicity at 70.5 h does the source give for `O=C(Cn1ccc(=O)[nH]c1=O)NCC1Cc2ccccc2O1` (configuration not stated) here?
**A.** Its cytotoxicity at 70.5 h is -11.6%.

**Q.** Which cytotoxicity at 70.5 h does the source give for `Cn1ccc(CN2CCCC(CNS(C)(=O)=O)C2)cc1=O` (configuration not stated) here?
**A.** Its cytotoxicity at 70.5 h is -10.1%.

**Q.** For `CC(C)C(C(=O)NC1CC1)n1cnc2cc(F)c(F)cc21` (configuration not stated), which cytotoxicity at 70.5 h is on record?
**A.** Its cytotoxicity at 70.5 h is -0.654%.

**Q.** For `COC(=O)C(C)N(Cc1cc(=O)n(C)c(=O)n1C)C1CC1` (configuration not stated), which cytotoxicity at 70.5 h is on record?
**A.** The cytotoxicity at 70.5 h was 4.91%.

**Q.** Which cytotoxicity at 70.5 h does the source give for `Clc1ccc(C2(NCc3noc(C4CC4)n3)CCOCC2)cc1` here?
**A.** The cytotoxicity at 70.5 h was -8.54%.

**Q.** Which cytotoxicity at 70.5 h does the source give for `N#CC1(C(=O)N2CCC(Nc3cccnn3)CC2)CCCCC1` here?
**A.** Its cytotoxicity at 70.5 h is 0.814%.

**Q.** With `CC(Nc1ccc(N2C(=O)CCCC2=O)cc1)c1ccc(C#N)cc1` (configuration not stated) as the compound, how does the cytotoxicity at 70.5 h read?
**A.** The cytotoxicity at 70.5 h was -6.87%.

**Q.** With `CCOCC(=O)Nc1ncc(I)cc1C` as the compound, how does the cytotoxicity at 70.5 h read?
**A.** The cytotoxicity at 70.5 h was -7.61%.

**Q.** With `CN(C)Cc1ccc(NC(=O)c2nccn3ccnc23)cc1` as the compound, how does the cytotoxicity at 70.5 h read?
**A.** Its cytotoxicity at 70.5 h is -4.61%.

**Q.** For `Cc1noc(C)c1NS(=O)(=O)c1cc(C(=O)O)cc(Cl)c1Cl`, which cytotoxicity at 70.5 h is on record?
**A.** Its cytotoxicity at 70.5 h is -4.5%.

**Q.** Which cytotoxicity at 70.5 h does the source give for `CCCOCC(=O)Nc1ncc(I)cc1C` here?
**A.** The cytotoxicity at 70.5 h was 4.92%.

**Q.** Which cytotoxicity at 70.5 h does the source give for `Cc1nnc(-c2ccc(C(=O)Nc3ccnc(N(C)C)n3)cc2)o1` here?
**A.** Its cytotoxicity at 70.5 h is 4.63%.

**Q.** With `O=C(Nc1ccc(CN2CCOCC2)cc1)c1nccn2ccnc12` as the compound, how does the cytotoxicity at 70.5 h read?
**A.** The cytotoxicity at 70.5 h was 22.2%.

**Q.** With `c1ccc(N2CCC(NCc3cccc4cn[nH]c34)C2)cc1` (configuration not stated) as the compound, how does the cytotoxicity at 70.5 h read?
**A.** The cytotoxicity at 70.5 h was 7.7%.

**Q.** With `CCOCCCC(=O)N1CCN(C(=O)Cc2cccc(OC)c2)CC1` as the compound, how does the cytotoxicity at 70.5 h read?
**A.** The cytotoxicity at 70.5 h was -5.09%.

**Q.** For `COC(=O)CNC(=O)C(C(C)C)n1cnc2cc(F)c(F)cc21` (configuration not stated), which cytotoxicity at 70.5 h is on record?
**A.** Its cytotoxicity at 70.5 h is 5.81%.

**Q.** Which cytotoxicity at 70.5 h does the source give for `Clc1ccc(C2(NCc3noc(C4CC4)n3)CCCC2)cc1` here?
**A.** The cytotoxicity at 70.5 h was -0.425%.

**Q.** Which cytotoxicity at 70.5 h does the source give for `CC(CCc1ccccc1)NC(=O)CNCCCN(C)C` (configuration not stated) here?
**A.** The cytotoxicity at 70.5 h was -3.07%.
